How the values were obtained:
[1] = target: T1, Retinoic acid receptor beta (Homo sapiens, UniProt P10826); assay: Apparent binding constant for Retinoic acid receptor beta in HeLa cellGAL-4 transactivation assay; format: cell-based
T1 sequence (P10826 whole entry): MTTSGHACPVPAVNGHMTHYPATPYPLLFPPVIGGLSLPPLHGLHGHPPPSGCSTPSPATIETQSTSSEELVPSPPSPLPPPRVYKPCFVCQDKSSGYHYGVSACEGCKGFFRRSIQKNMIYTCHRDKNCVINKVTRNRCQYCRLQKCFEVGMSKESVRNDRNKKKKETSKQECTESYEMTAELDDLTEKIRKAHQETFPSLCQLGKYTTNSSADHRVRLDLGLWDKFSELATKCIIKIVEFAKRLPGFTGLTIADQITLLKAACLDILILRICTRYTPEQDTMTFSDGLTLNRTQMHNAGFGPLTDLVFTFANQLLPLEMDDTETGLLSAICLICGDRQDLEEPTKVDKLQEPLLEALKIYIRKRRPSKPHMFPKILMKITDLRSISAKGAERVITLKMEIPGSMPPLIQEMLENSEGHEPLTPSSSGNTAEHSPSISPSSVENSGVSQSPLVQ

[2] = target: T2, Retinoic acid receptor alpha (Homo sapiens, UniProt P10276); assay: Apparent binding constant against Retinoic acid receptor alpha in HeLa cell GAl-4 transactivation assay; format: cell-based
T2 sequence (P10276 whole entry): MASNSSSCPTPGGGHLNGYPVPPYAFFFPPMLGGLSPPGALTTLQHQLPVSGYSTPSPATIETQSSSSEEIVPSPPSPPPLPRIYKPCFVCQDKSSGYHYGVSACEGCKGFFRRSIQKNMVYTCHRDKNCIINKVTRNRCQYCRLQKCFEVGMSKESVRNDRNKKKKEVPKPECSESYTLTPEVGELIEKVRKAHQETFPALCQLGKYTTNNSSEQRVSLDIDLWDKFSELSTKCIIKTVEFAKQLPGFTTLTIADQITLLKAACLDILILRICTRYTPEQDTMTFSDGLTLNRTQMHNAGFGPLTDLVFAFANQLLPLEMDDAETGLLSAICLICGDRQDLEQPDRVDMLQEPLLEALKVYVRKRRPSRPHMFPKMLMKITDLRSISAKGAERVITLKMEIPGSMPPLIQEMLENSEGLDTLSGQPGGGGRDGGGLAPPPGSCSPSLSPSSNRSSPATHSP

Kd [1]: 1.27 µM
Kd [2]: 11 µM
Structure (SMILES): CC1(C)CCC(C)(C)c2cc(/C(=N/NS(C)(=O)=O)c3ccc4cc(C(=O)O)ccc4c3)ccc21
